Assay in all cases: cell-based
One experiment concerns the target hNav1.4 (Homo sapiens, UniProt P35499). To be noted: for IC50: IonWorks Quattro, read-out: IC50 Nav1.4; for Nav1.4/Nav1.7: ratio of IonWorks Quattro IC50 values.
For the next experiment, the target named is hNav1.3 (Homo sapiens, UniProt Q9NY46). To be noted: IonWorks Quattro; read-out: IC50 Nav1.3.
A further experiment concerns the target hNav1.7 (Homo sapiens, UniProt Q15858). To be noted: IonWorks Quattro; read-out: IC50 Nav1.7.
Another experiment has as its target hNav1.5 (Homo sapiens, UniProt Q14524). To be noted: IonWorks Quattro; read-out: IC50 Nav1.5.

Several values for one entry are separate records, joined by “and”; a condition that tells them apart may be missing. Equal values may be shown once.

Chain of hNav1.3 (Q9NY46 whole entry): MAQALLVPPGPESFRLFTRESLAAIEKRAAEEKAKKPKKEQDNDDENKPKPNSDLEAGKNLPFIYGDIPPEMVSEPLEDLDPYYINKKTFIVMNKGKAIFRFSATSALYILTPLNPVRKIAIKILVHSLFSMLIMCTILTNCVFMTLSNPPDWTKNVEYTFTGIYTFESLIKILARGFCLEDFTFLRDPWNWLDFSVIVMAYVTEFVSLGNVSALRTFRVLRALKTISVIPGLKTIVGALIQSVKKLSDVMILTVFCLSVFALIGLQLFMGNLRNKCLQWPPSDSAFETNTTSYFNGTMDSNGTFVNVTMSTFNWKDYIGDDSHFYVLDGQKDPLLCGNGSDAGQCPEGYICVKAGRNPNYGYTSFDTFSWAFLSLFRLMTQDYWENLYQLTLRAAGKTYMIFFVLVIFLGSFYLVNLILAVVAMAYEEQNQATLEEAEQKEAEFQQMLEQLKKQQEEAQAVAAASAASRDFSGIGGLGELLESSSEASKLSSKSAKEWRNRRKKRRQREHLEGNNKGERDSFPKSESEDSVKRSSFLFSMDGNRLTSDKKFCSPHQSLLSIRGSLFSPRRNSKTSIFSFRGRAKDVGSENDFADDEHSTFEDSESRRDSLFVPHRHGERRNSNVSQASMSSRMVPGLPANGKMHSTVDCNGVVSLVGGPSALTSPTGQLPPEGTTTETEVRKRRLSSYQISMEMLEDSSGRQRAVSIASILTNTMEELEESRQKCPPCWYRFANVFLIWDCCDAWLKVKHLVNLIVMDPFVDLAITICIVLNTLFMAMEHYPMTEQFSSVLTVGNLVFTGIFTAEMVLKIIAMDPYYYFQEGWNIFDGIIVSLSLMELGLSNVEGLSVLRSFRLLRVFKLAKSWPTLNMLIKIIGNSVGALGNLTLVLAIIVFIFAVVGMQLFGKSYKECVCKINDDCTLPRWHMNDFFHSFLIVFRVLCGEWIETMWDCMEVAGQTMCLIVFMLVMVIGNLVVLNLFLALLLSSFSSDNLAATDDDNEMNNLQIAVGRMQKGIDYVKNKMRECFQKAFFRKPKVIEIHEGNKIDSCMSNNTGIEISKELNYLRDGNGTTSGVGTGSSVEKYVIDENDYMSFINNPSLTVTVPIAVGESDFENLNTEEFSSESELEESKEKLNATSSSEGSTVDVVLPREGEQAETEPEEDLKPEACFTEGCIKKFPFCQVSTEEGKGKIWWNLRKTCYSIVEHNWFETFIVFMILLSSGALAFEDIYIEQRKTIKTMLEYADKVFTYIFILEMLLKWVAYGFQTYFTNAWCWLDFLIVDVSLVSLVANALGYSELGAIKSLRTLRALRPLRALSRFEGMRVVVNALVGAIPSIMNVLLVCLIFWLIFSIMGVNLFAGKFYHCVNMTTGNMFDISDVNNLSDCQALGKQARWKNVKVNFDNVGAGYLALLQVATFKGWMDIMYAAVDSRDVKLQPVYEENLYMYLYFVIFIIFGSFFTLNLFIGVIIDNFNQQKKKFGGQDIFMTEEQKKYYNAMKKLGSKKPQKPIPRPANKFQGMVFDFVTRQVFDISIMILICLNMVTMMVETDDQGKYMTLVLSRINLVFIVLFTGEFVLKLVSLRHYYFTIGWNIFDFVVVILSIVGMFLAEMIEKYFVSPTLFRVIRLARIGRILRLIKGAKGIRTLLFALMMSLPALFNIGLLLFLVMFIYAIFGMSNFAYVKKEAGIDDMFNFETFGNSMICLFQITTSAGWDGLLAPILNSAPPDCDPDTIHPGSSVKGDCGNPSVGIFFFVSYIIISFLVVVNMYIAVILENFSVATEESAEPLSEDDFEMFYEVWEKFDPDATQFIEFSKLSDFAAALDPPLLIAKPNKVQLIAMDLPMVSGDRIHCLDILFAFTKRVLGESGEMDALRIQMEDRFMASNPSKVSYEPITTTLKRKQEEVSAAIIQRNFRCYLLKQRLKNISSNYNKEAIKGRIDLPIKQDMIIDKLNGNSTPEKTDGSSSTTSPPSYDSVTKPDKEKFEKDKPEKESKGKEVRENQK
Chain of hNav1.4 (P35499 whole entry): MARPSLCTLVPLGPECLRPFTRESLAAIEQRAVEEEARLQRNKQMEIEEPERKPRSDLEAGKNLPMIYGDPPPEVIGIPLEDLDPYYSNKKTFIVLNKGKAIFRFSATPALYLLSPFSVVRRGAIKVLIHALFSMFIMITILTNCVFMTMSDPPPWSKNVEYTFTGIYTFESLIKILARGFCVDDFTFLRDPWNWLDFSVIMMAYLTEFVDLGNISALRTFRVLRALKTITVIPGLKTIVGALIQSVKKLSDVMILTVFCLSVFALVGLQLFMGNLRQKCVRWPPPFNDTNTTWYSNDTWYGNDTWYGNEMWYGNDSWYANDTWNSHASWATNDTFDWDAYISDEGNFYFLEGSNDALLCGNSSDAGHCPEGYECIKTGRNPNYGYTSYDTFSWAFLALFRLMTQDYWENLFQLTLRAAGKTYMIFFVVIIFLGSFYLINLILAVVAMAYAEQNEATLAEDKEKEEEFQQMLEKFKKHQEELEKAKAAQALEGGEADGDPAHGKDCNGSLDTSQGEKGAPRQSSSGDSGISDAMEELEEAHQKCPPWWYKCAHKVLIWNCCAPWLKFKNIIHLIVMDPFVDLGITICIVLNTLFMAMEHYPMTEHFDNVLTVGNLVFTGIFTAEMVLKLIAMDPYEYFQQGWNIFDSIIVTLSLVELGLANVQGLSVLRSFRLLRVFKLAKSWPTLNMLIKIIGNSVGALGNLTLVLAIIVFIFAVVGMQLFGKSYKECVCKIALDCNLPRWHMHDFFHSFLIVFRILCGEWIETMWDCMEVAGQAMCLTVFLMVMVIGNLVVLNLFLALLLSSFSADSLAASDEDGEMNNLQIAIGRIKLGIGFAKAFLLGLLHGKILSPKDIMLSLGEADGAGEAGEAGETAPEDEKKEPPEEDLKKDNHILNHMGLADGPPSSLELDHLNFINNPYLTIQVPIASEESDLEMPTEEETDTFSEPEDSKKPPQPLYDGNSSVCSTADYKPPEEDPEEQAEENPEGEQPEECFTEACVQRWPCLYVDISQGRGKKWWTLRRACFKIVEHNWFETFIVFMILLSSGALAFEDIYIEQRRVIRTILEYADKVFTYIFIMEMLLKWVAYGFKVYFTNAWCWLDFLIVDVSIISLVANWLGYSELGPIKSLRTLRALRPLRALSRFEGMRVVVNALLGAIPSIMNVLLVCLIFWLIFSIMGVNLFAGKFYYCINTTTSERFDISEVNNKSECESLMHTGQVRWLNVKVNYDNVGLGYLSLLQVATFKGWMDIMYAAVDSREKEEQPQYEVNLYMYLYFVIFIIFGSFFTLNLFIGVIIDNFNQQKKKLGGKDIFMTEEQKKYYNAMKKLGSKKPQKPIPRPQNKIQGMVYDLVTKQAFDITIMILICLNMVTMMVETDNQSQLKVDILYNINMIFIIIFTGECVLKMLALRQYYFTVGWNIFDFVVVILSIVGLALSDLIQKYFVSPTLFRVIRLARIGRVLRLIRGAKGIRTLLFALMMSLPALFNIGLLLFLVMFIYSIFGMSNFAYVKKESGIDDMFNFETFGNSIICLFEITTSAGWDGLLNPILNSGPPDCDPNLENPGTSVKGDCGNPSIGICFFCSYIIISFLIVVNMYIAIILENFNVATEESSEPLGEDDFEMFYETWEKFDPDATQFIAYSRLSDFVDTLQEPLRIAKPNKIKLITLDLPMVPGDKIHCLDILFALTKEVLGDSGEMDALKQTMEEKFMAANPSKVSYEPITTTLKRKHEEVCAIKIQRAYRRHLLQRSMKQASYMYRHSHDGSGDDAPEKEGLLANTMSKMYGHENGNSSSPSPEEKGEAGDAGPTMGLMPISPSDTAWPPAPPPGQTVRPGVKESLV

For `CC[C@H](C)[C@H](NC(=O)[C@H](Cc1ccc(O)cc1)NC(=O)[C@H](CCCCN)NC(=O)[C@H](CCCNC(=N)N)NC(=O)[C@@H]1CSSC[C@@H]2NC(=O)[C@H](C)NC(=O)[C@H](CCCNC(=N)N)NC(=O)[C@H](CCCCN)NC(=O)[C@H](CO)NC(=O)[C@H](CC(=O)O)NC(=O)[C@@H]3CSSC[C@H](NC(=O)[C@H](CCC(=O)O)NC(=O)[C@H](CC(C)C)NC(=O)CNC(=O)[C@H](CCC(=O)O)NC(=O)[C@H](CSSC[C@H](NC(=O)[C@@H](N)Cc4ccc(O)cc4)C(=O)N[C@@H](CCC(N)=O)C(=O)N[C@@H](CCCCN)C(=O)N[C@@H](CCCNC(N)=O)C(=O)N[C@@H](CCSC)C(=O)N[C@@H](Cc4c[nH]c5ccccc45)C(=O)N[C@@H]([C@@H](C)O)C(=O)N3)NC2=O)C(=O)N[C@@H](CCCCN)C(=O)N[C@@H](CC(C)C)C(=O)N[C@@H](Cc2c[nH]c3ccccc23)C(=O)N1)C(N)=O` [compound 199], the 50% inhibitory concentration (IC50) at hNav1.4, on hNav1.3, on hNav1.7 and on hNav1.5 was greater than 5 µM throughout.

Consider `CCCC[C@@H]1NC(=O)[C@H](Cc2c[nH]c3ccccc23)NC(=O)[C@H](CCCCN)NC(=O)[C@H](CCC(N)=O)NC(=O)[C@@H](NC(=O)[C@@H](N)Cc2ccc(O)cc2)CSSC[C@@H]2NC(=O)[C@@H]3CSSC[C@@H](C(=O)N[C@@H](CCCNC(=N)N)C(=O)N[C@@H](CCCCN)C(=O)N[C@H](C(=O)N[C@H](C(N)=O)[C@@H](C)CC)[C@@H](C)CC)NC(=O)[C@H](Cc4c[nH]c5ccccc45)NC(=O)[C@H](CC(C)C)NC(=O)[C@H](CCCCN)NC(=O)[C@H](CSSC[C@H](NC(=O)[C@H]([C@@H](C)O)NC(=O)[C@H](Cc4c[nH]c5ccccc45)NC1=O)C(=O)N[C@@H](CC(=O)O)C(=O)N[C@@H](CO)C(=O)N[C@@H](CCCCN)C(=O)N[C@@H](CCCNC(=N)N)C(=O)N[C@@H](C)C(=O)N3)NC(=O)[C@H](CCC(=O)O)NC(=O)[C@H](CC(C)C)NC(=O)CNC(=O)[C@H](CCC(=O)O)NC2=O` [compound 273], for which the IC50 at hNav1.4 was greater than 5 µM; at hNav1.3, 4.1 µM; on hNav1.7, 0.19 µM; at hNav1.5, greater than 5 µM.

Consider `CSCC[C@@H]1NC(=O)[C@H](Cc2c[nH]c3ccccc23)NC(=O)[C@H](CCCCN)NC(=O)[C@H](CCC(N)=O)NC(=O)[C@@H](NC(=O)[C@@H](N)Cc2ccc(O)cc2)CSSC[C@@H]2NC(=O)[C@@H]3CSSC[C@@H](C(=O)N[C@@H](CCCNC(=N)N)C(=O)N[C@@H](CCCCN)C(=O)N[C@@H](Cc4ccc(O)cc4)C(=O)N[C@@H](CO)C(N)=O)NC(=O)[C@H](Cc4c[nH]c5ccccc45)NC(=O)[C@H](CC(C)C)NC(=O)[C@H](CCCCN)NC(=O)[C@H](CSSC[C@H](NC(=O)[C@H]([C@@H](C)O)NC(=O)[C@H](Cc4c[nH]c5ccccc45)NC1=O)C(=O)N[C@@H](CC(=O)O)C(=O)N[C@@H](CO)C(=O)N[C@@H](CCCCN)C(=O)N[C@@H](CCCNC(=N)N)C(=O)N[C@@H](C)C(=O)N3)NC(=O)[C@H](CCC(=O)O)NC(=O)[C@H](CC(C)C)NC(=O)CNC(=O)[C@H](CCC(=O)O)NC2=O` [compound 244], for which the half-maximal inhibitory concentration (IC50) is greater than 5 µM at hNav1.4, greater than 5 µM at hNav1.3, 0.34 µM on hNav1.7 and greater than 5 µM on hNav1.5.

Turning to `CC[C@H](C)[C@H](NC(=O)[C@@H](NC(=O)[C@H](CCCCN)NC(=O)[C@H](CCCNC(=N)N)NC(=O)[C@@H]1CSSC[C@@H]2NC(=O)[C@H](C)NC(=O)[C@H](CCCNC(=N)N)NC(=O)[C@H](CCCCN)NC(=O)[C@H](CO)NC(=O)[C@H](CC(=O)O)NC(=O)[C@@H]3CSSC[C@H](NC(=O)[C@H](CCC(=O)O)NC(=O)[C@H](CC(C)C)NC(=O)CNC(=O)[C@H](CCC(=O)O)NC(=O)[C@H](CSSC[C@H](NC(=O)[C@@H](N)Cc4ccc(O)cc4)C(=O)N[C@@H](CCC(N)=O)C(=O)N[C@@H](CCCCN)C(=O)N[C@@H](Cc4c[nH]c5ccccc45)C(=O)N[C@@H](CCSC)C(=O)N[C@@H](Cc4c[nH]c5ccccc45)C(=O)N[C@@H]([C@@H](C)O)C(=O)N3)NC2=O)C(=O)N[C@@H](CCCCN)C(=O)N[C@@H](Cc2cn(CCCOCCOCCOCCOCCOCCOCCOCCOCCOCCOCCN)nn2)C(=O)N[C@@H](Cc2c[nH]c3ccccc23)C(=O)N1)[C@@H](C)CC)C(N)=O` [compound 183], the IC50 was greater than 5 µM at hNav1.4, greater than 5 µM on hNav1.3, no less than 5 µM at hNav1.7 and 19.2 µM at hNav1.5. The Nav1.4/Nav1.7 on hNav1.4 was determined as 1.

Regarding `CC[C@H](C)[C@H](NC(=O)[C@H](Cc1ccc(O)cc1)NC(=O)[C@H](CCCCN)NC(=O)[C@H](CCCNC(=N)N)NC(=O)[C@@H]1CSSC[C@@H]2NC(=O)[C@H](C)NC(=O)[C@H](CCCNC(=N)N)NC(=O)[C@H](CCCCN)NC(=O)[C@H](CO)NC(=O)[C@H](CC(=O)O)NC(=O)[C@@H]3CSSC[C@H](NC(=O)[C@H](CCC(=O)O)NC(=O)[C@H](CC(C)C)NC(=O)CNC(=O)[C@H](CCC(=O)O)NC(=O)[C@H](CSSC[C@H](NC(=O)[C@@H](N)Cc4ccc(O)cc4)C(=O)N[C@@H](CCC(N)=O)C(=O)N[C@@H](CCCCN)C(=O)N[C@@H](Cc4c[nH]c5ccccc45)C(=O)N[C@@H](CCSC)C(=O)N[C@@H](Cc4c[nH]c5ccccc45)C(=O)N[C@@H]([C@@H](C)O)C(=O)N3)NC2=O)C(=O)N[C@@H](CCCCN)C(=O)N[C@@H](CC(C)C)C(=O)N[C@@H](Cc2ccc3ccccc3c2)C(=O)N1)C(N)=O` [compound 219], the IC50 was greater than 7 µM on hNav1.4; greater than 7 µM on hNav1.3; 0.86 µM and 1 µM at hNav1.7; greater than 7 µM on hNav1.5.

Regarding `CC[C@H](C)[C@H](NC(=O)[C@H](Cc1ccc(O)cc1)NC(=O)[C@H](CCCCN)NC(=O)[C@H](CCCNC(=N)N)NC(=O)[C@@H]1CSSC[C@@H]2NC(=O)[C@H](C)NC(=O)[C@H](CCCNC(=N)N)NC(=O)[C@H](CCCCN)NC(=O)[C@H](CO)NC(=O)[C@H](CC(=O)O)NC(=O)[C@@H]3CSSC[C@H](NC(=O)[C@H](CCC(=O)O)NC(=O)[C@H](CC(C)C)NC(=O)CNC(=O)[C@H](CCC(=O)O)NC(=O)[C@H](CSSC[C@H](NC(=O)[C@@H](N)Cc4ccc(O)cc4)C(=O)N[C@@H](CCC(N)=O)C(=O)N[C@@H](CCCCN)C(=O)N[C@@H](Cc4ccc(O)cc4)C(=O)N[C@@H](CCSC)C(=O)N[C@@H](Cc4c[nH]c5ccccc45)C(=O)N[C@@H]([C@@H](C)O)C(=O)N3)NC2=O)C(=O)N[C@@H](CCCCN)C(=O)N[C@@H](CC(C)C)C(=O)N[C@@H](Cc2c[nH]c3ccccc23)C(=O)N1)C(N)=O` [compound 194], the concentration for half-maximal inhibition (IC50) on hNav1.4 was greater than 5 µM; on hNav1.3, greater than 5 µM; at hNav1.7, 0.91 µM and 2.5 µM; at hNav1.5, greater than 5 µM.

Turning to `CC[C@H](C)[C@H](NC(=O)[C@@H](NC(=O)[C@H](CCCCN)NC(=O)[C@H](CCCNC(=N)N)NC(=O)[C@@H]1CSSC[C@@H]2NC(=O)[C@H](C)NC(=O)[C@H](CCCNC(=N)N)NC(=O)[C@H](CCCCN)NC(=O)[C@H](CO)NC(=O)[C@H](CC(=O)O)NC(=O)[C@@H]3CSSC[C@H](NC(=O)[C@H](CO)NC(=O)[C@H](CC(C)C)NC(=O)CNC(=O)[C@H](CCC(=O)O)NC(=O)[C@H](CSSC[C@H](NC(=O)[C@@H](N)Cc4ccc(O)cc4)C(=O)N[C@@H](CCC(N)=O)C(=O)N[C@@H](CCCCN)C(=O)N[C@@H](Cc4c[nH]c5ccccc45)C(=O)N[C@@H](CCSC)C(=O)N[C@@H](Cc4c[nH]c5ccccc45)C(=O)N[C@@H]([C@@H](C)O)C(=O)N3)NC2=O)C(=O)N[C@@H](CCCCN)C(=O)N[C@@H](CC(C)C)C(=O)N[C@@H](Cc2c[nH]c3ccccc23)C(=O)N1)[C@@H](C)CC)C(N)=O` [compound 125], the half-maximal inhibitory concentration (IC50) at hNav1.4 amounted to 0.4 µM; on hNav1.3, 0.29 µM; on hNav1.7 it was 0.03 µM; on hNav1.5, 9.2 µM. For the same compound, on hNav1.4, the Nav1.4/Nav1.7 came out at 17.

For the compound `CC[C@H](C)[C@H](NC(=O)[C@H](Cc1ccc(O)cc1)NC(=O)[C@H](CCCCN)NC(=O)[C@H](CCCNC(=N)N)NC(=O)[C@@H]1CSSC[C@@H]2NC(=O)[C@H](C)NC(=O)[C@H](CCCNC(=N)N)NC(=O)[C@H](CCCCN)NC(=O)[C@H](CO)NC(=O)[C@H](CC(=O)O)NC(=O)[C@@H]3CSSC[C@H](NC(=O)[C@H](CCC(=O)O)NC(=O)[C@H](CC(C)C)NC(=O)CNC(=O)[C@H](CCC(=O)O)NC(=O)[C@H](CSSC[C@H](NC(=O)[C@@H](N)Cc4ccc(O)cc4)C(=O)N[C@@H](CCC(N)=O)C(=O)N[C@@H](CCCCN)C(=O)N[C@@H](Cc4c[nH]c5ccccc45)C(=O)N[C@@H](CCSC)C(=O)N[C@@H](CCCNC(N)=O)C(=O)N[C@@H]([C@@H](C)O)C(=O)N3)NC2=O)C(=O)N[C@@H](CCCCN)C(=O)N[C@@H](CC(C)C)C(=O)N[C@@H](Cc2c[nH]c3ccccc23)C(=O)N1)C(N)=O` [compound 213], the IC50 at hNav1.4 was greater than 7 µM; on hNav1.3, greater than 7 µM; at hNav1.7 it was 5.8 µM; on hNav1.5, greater than 7 µM.

Turning to `CC[C@H](C)[C@H](NC(=O)[C@@H](NC(=O)[C@H](CCCCN)NC(=O)[C@H](CCCNC(=N)N)NC(=O)[C@@H]1CSSC[C@@H]2NC(=O)[C@H](C)NC(=O)[C@H](CCCNC(=N)N)NC(=O)[C@H](CCCCN)NC(=O)[C@H](CO)NC(=O)[C@H](CC(=O)O)NC(=O)[C@@H]3CSSC[C@H](NC(=O)[C@H](CCC(=O)O)NC(=O)[C@H](CC(C)C)NC(=O)CNC(=O)[C@H](CCC(=O)O)NC(=O)[C@H](CSSC[C@H](NC(=O)[C@@H](N)Cc4cn(CCCOCCOCCOCCOCCOCCOCCOCCOCCOCCOCCN)nn4)C(=O)N[C@@H](CCC(N)=O)C(=O)N[C@@H](CCCCN)C(=O)N[C@@H](Cc4c[nH]c5ccccc45)C(=O)N[C@@H](CCSC)C(=O)N[C@@H](Cc4c[nH]c5ccccc45)C(=O)N[C@@H]([C@@H](C)O)C(=O)N3)NC2=O)C(=O)N[C@@H](CCCCN)C(=O)N[C@@H](CC(C)C)C(=O)N[C@@H](Cc2c[nH]c3ccccc23)C(=O)N1)[C@@H](C)CC)C(N)=O` [compound 165], the IC50 at hNav1.4 is greater than 5 µM; at hNav1.3, greater than 5 µM; on hNav1.7, 0.18 µM; on hNav1.5, 15.1 µM. In addition, the Nav1.4/Nav1.7 at hNav1.4 is reported as 28.

Source of the values: US9636418B2 (priority 2013, dated 2017).
